One series has as its system E. coli ATTC 25922. Description: MIC, two-fold plate dilution method. The note with it: E. coli ATTC 25922, Gram-negative; Muener-Hinton medium. Type of series: cell-based. An excerpt:
(§1) . The pharmaceutically acceptable salts or hydrates thereof have the same antibacterial activity.
(§2) Two-fold plate dilution method is used for determination of activity, with Muener-Hinton medium (DIFCO) as the culture medium and clinically isolated pathogenic strain, quality control strain and standard strain (provided by National Institute for the Control of Pharmaceutical and Biological Products) as test strains.

The next series concerns Enterococcus 755. Description: MIC, two-fold plate dilution method. It counts as cell-based. Particulars: Enterococcus 755, Gram-positive; Muener-Hinton medium.
Description: as §1, §2

For the next series, the system named is P. aeruginosa 17. Description: MIC, two-fold plate dilution method. It counts as cell-based. The note with it: P. aeruginosa 17, Gram-negative; Muener-Hinton medium.
Description: as §1, §2

For the next series, the system named is S. pneumoniae 98. Description: MIC, two-fold plate dilution method. The note with it: S. pneumoniae 98, Gram-positive; Muener-Hinton medium. Type of series: cell-based.
Description: as §1, §2

For another series, the system named is S. pyogenes 26. Description: MIC, two-fold plate dilution method. It counts as cell-based. Particulars: S. pyogenes 26, Gram-positive; Muener-Hinton medium.
Description: as §1, §2

The subject of a further series is S. pneumoniae 70. Description: MIC, two-fold plate dilution method. Type of series: cell-based. The note with it: S. pneumoniae 70, Gram-positive; Muener-Hinton medium.
Description: as §1, §2

In a further series the test system is K. pneumoniae 7. Description: MIC, two-fold plate dilution method. It counts as cell-based. The note with it: K. pneumoniae 7, Gram-negative; Muener-Hinton medium.
Description: as §1, §2

A further series deals with E. coli 26. Description: MIC, two-fold plate dilution method. Type of series: cell-based. The note with it: E. coli 26, Gram-negative; Muener-Hinton medium.
Description: as §1, §2

The subject of a further series is K. pneumoniae 14. Description: MIC, two-fold plate dilution method. The note with it: K. pneumoniae 14, Gram-negative; Muener-Hinton medium. Type of series: cell-based.
Description: as §1, §2

The next series deals with S. epidermidis 26069. Description: MIC, two-fold plate dilution method. It counts as cell-based. The note with it: S. epidermidis 26069, Gram-positive; Muener-Hinton medium.
Description: as §1, §2

The subject of another series is S. aureus ATTC 25923. Description: MIC, two-fold plate dilution method. Type of series: cell-based. Particulars: S. aureus ATTC 25923, Gram-positive; Muener-Hinton medium.
Description: as §2

The nature of series [1]: Acute oral toxicity in mice. Particulars: mouse, in vivo, male mice, deaths after 7 days, Bliss program. The procedure:
Toxicity experiments are carried out on the compounds prepared in embodiment 11, 13 and 15 to determine the acute oral toxicity of the present compounds. Solutions of the three compounds in different concentrations are administered to male mice at a dosage of 0.1 mL/10 g body weight, then the number of dead mice after 7 days is recorded, and lethal dose 50% (LD50) is calculated for each compound by Bliss program.

Another series concerns S. pneumoniae. Particulars: compared with gatifloxacin; cited from earlier work.

The structures appear in SMILES notation. Values after ≈ are worked out from the molar mass of the structure shown. A value given as a limit tells only on which side of the number the result lay.

For orientation: MIC means the smallest concentration in the dilution series that meets the test's criterion for growth inhibition. By LD50 is commonly meant the dose expected to kill half of the subjects tested. Take `Cl.O=C(O)c1cn(C2CC2)c2c(OC(F)F)c(N3C[C@@H]4CCCN[C@@H]4C3)c(F)cc2c1=O` (relative stereo) [Embodiment 15, 1-Cyclopropyl-8-difluoromethoxyl-7-[cis-2,8-diazabicyclo[4,3,0]nonane-8-yl]-6-fluoro-1,4-dihydro-4-oxoquinoline-3-carboxylic acid hydrochloride]: the MIC with E. coli ATTC 25922 was determined as 0.25 µg/mL; in the series on Enterococcus 755, 0.25 µg/mL; in the series on P. aeruginosa 17, 0.5 µg/mL; in the series on S. pneumoniae 98, 0.125 µg/mL; against S. pyogenes 26, 0.25 µg/mL; against S. pneumoniae 70 it was 0.06 µg/mL. The MIC in the series with K. pneumoniae 7 came out at 0.03 µg/mL; in the series on E. coli 26, 0.03 µg/mL; against K. pneumoniae 14 it was 0.03 µg/mL; against S. epidermidis 26069 it was 0.5 µg/mL; against S. aureus ATTC 25923, 0.125 µg/mL. Besides, the LD50 at 7 days in [1] was greater than 4000 mg/kg.

Consider `Nc1c(F)c(N2C[C@@H]3CCCN[C@@H]3C2)c(OC(F)F)c2c1c(=O)c(C(=O)O)cn2C1CC1` (relative stereo) [Embodiment 21, 5-Amino-1-cyclopropyl-8-difluoromethoxyl-7-(cis-2,8-diazabicyclo[4,3,0]nonane-8-yl)-6-fluoro-1,4-dihydro-4-oxoquinoline-3-carboxylic acid], for which the MIC in the series with E. coli ATTC 25922 is less than 0.007 µg/mL; against Enterococcus 755, 0.25 µg/mL (≈ 0.553 µM); against P. aeruginosa 17 it was 0.25 µg/mL (≈ 0.553 µM); against S. pneumoniae 98, 0.03 µg/mL (≈ 0.0663 µM); against S. pyogenes 26, 0.25 µg/mL (≈ 0.553 µM); with S. pneumoniae 70, 0.06 µg/mL (≈ 0.133 µM). Moreover, the MIC in the series with K. pneumoniae 7 is 0.015 µg/mL (≈ 0.0332 µM); in the series with E. coli 26 it was less than 0.007 µg/mL; against K. pneumoniae 14 it was 0.015 µg/mL (≈ 0.0332 µM); with S. epidermidis 26069, 0.25 µg/mL (≈ 0.553 µM); in the series on S. aureus ATTC 25923, 0.03 µg/mL (≈ 0.0663 µM).

On to `O=C(O)c1cn(C2CC2)c2cc(N3CCNCC3)c(F)cc2c1=O` [Ciprofloxacin, ciprofloxacin, reference compound], for which, in the series with K. pneumoniae 7, the MIC was found to be 0.015 g/mL.

With `Cl.O=C(O)c1cn(C2CC2)c2c(OC(F)F)c(N3C[C@@H]4CCCN[C@@H]4C3)c(F)cc2c1=O` [Embodiment 13, 1-cyclopropyl-8-difluoromethoxyl-7-[(1S,6S)-2,8-diazabicyclo[4,3,0]nonane-8-yl]-6-fluoro-1,4-dihydro-4-oxoquinoline-3-carboxylic acid hydrochloride], the MIC turned out to be 0.015 µg/mL with E. coli ATTC 25922; 0.25 µg/mL in the series with Enterococcus 755; 0.25 µg/mL in the series with P. aeruginosa 17; 0.015 µg/mL in the series with S. pneumoniae 98; 0.25 µg/mL with S. pyogenes 26; 0.125 µg/mL in the series on S. pneumoniae 70. Further, the MIC against K. pneumoniae 7 was 0.015 µg/mL; in the series with E. coli 26, 0.015 µg/mL; against K. pneumoniae 14, 0.015 µg/mL; in the series on S. epidermidis 26069, 0.25 µg/mL; against S. aureus ATTC 25923 it was 0.03 µg/mL. Further, the LD50 at 7 days in series [1] is greater than 4000 mg/kg.

As for `Cl.O=C(O)c1cn(C2CC2)c2c(OC(F)F)c(N3C[C@H]4CCCN[C@H]4C3)c(F)cc2c1=O` [Embodiment 14, 1-cyclopropyl-8-difluoromethoxyl-7-[(1R,6R)-2,8-diazabicyclo[4,3,0]nonane-8-yl]-6-fluoro-1,4-dihydro-4-oxoquinoline-3-carboxylic acid hydrochloride], the MIC with E. coli ATTC 25922 is 0.015 µg/mL; with Enterococcus 755 it was 0.25 µg/mL; against P. aeruginosa 17 it was 1 µg/mL; against S. pneumoniae 98, 0.015 µg/mL; with S. pyogenes 26, 0.5 µg/mL; in the series on S. pneumoniae 70, 0.06 µg/mL. Moreover, the MIC with K. pneumoniae 7 turned out to be 0.03 µg/mL; against E. coli 26, 0.03 µg/mL; with K. pneumoniae 14, 0.03 µg/mL; against S. epidermidis 26069, 0.5 µg/mL; in the series with S. aureus ATTC 25923 it was 0.03 µg/mL.

Regarding `Cl.Nc1c(F)c(N2C[C@@H]3CCCN[C@@H]3C2)c(OC(F)F)c2c1c(=O)c(C(=O)O)cn2C1CC1` [Embodiment 17, 5-amino-1-cyclopropyl-8-difluoromethoxyl-7-[(1S,6S)-2,8-diazabicyclo[4,3,0]nonane-8-yl]-6-fluoro-1,4-dihydro-4-oxoquinoline-3-carboxylic acid hydrochloride], the MIC with E. coli ATTC 25922 worked out at 0.051 µg/mL; against Enterococcus 755, 0.015 µg/mL; in the series on P. aeruginosa 17, 0.25 µg/mL; in the series with S. pneumoniae 98 it was 0.015 µg/mL; with S. pyogenes 26, 0.25 µg/mL; in the series on S. pneumoniae 70, 0.015 µg/mL. The MIC with K. pneumoniae 7 is 0.015 µg/mL; with E. coli 26 it was 0.015 µg/mL; in the series on K. pneumoniae 14, 0.015 µg/mL; in the series on S. epidermidis 26069 it was 0.25 µg/mL; in the series with S. aureus ATTC 25923, 0.03 µg/mL. The compound further showed an LD50 at 7 days in series [1] greater than 4000 mg/kg.

In the case of `Cl.Nc1c(F)c(N2C[C@H]3CCCN[C@H]3C2)c(OC(F)F)c2c1c(=O)c(C(=O)O)cn2C1CC1` [Embodiment 18, 5-Amino-1-cyclopropyl-8-difluoromethoxyl-7-[(1R,6R)-2,8-diazabicyclo[4,3,0]nonane-8-yl]-6-fluoro-1,4-dihydro-4-oxoquinoline-3-carboxylic acid hydrochloride], the MIC with E. coli ATTC 25922 came to 0.015 µg/mL; against Enterococcus 755 it was 0.06 µg/mL; against P. aeruginosa 17, 0.25 µg/mL; against S. pneumoniae 98 it was 0.125 µg/mL; against S. pyogenes 26, 0.25 µg/mL; against S. pneumoniae 70 it was 0.03 µg/mL. Besides, the MIC in the series with K. pneumoniae 7 worked out at 0.015 µg/mL; with E. coli 26 it was 0.015 µg/mL; against K. pneumoniae 14, 0.015 µg/mL; in the series on S. epidermidis 26069 it was 0.25 µg/mL; in the series on S. aureus ATTC 25923, 0.06 µg/mL.

As to `C[C@H]1NCc2cc(-c3ccc4c(=O)c(C(=O)O)cn(C5CC5)c4c3OC(F)F)ccc21` [Embodiment T-3811], the “in vitro activity against S. pneumoniae (in words)” value in the series with S. pneumoniae is recorded as “enhanced in vitro activity against S. pneumoniae, even superior to gatifloxacin”.

In the case of `COc1c(N2C[C@@H]3CCCN[C@@H]3C2)c(F)cc2c(=O)c(C(=O)O)cn(C3CC3)c12` [Moxifloxacin, moxifloxacin, reference compound], the MIC in the series on E. coli ATTC 25922 was found to be 0.03 µg/mL (≈ 0.0747 µM); against Enterococcus 755 it was 0.5 µg/mL (≈ 1.25 µM); in the series with P. aeruginosa 17, 0.5 µg/mL (≈ 1.25 µM); in the series with S. pneumoniae 98, 0.125 µg/mL (≈ 0.311 µM); with S. pyogenes 26, 0.5 µg/mL (≈ 1.25 µM); with S. pneumoniae 70 it was 0.125 µg/mL (≈ 0.311 µM). Also, the MIC against K. pneumoniae 7 amounted to 0.03 µg/mL (≈ 0.0747 µM); against E. coli 26 it was 0.03 µg/mL (≈ 0.0747 µM); in the series on K. pneumoniae 14, 0.03 µg/mL (≈ 0.0747 µM); against S. epidermidis 26069 it was 0.5 µg/mL (≈ 1.25 µM); in the series with S. aureus ATTC 25923, 0.06 µg/mL (≈ 0.149 µM).

The values above are taken from US7759362B2, “Quinolonecarboxylic acid compounds, preparation methods and pharmaceutical uses thereof” (Institut of Medicinal Biotechnology Chinese Academy of …, priority 2004, dated 2010).
